# Activity calls are given as the source filed them. The rule behind the calls is not given here.
# How the values were obtained:
# Rattus norvegicus [1] = assay: Toxicity in benign prostatic hyperplasia Sprague-Dawley rat model assessed as effect on seminal vesicle weight at 10 mg/kg, po qd co-administered with citral for 21 days starting post 8 days of citral alone treatment; assay type: organism-based; details: in vivo
# Rattus norvegicus [2] = assay: (§1) Anti-androgenic activity in citral-induced benign prostatic hyperplasia Sprague-Dawley rat model assessed as reduction in stromal component at 10 mg/kg, po qd co-administered with citral for 21 days starting post 8 days of citral alone treatment by hematoxyline and eosin staining based light microscopic analysis; assay type: functional, organism-based
# LNCaP [3] = assay: Cytotoxicity against human LNCAP cells assessed as reduction in cell viability after 24 hrs by MTT assay; assay type: functional, cell-based
# Rattus norvegicus [4] = assay: as §1, with “tissue differentiation into stroma” for “stromal component”; assay type: functional, organism-based
# Rattus norvegicus [5] = assay: Anti-androgenic activity in benign prostatic hyperplasia Sprague-Dawley rat model assessed as reduction in citral-induced prostate weight at 10 mg/kg, po qd co-administered with citral for 21 days starting post 8 days of citral alone treatment; assay type: functional; set-up: scale not given: the % may be the effect or the level left
# Rattus norvegicus [6] = assay: Toxicity in benign prostatic hyperplasia Sprague-Dawley rat model assessed as effect on testis weight at 10 mg/kg, po qd co-administered with citral for 21 days starting post 8 days of citral alone treatment; assay type: organism-based; details: in vivo
# Rattus norvegicus [7] = assay: as §1, with “tissue differentiation into acinar compartments” for “stromal component”; assay type: functional, organism-based
# Rattus norvegicus [8] = assay: Toxicity in benign prostatic hyperplasia Sprague-Dawley rat model assessed as effect on epididymis weight at 10 mg/kg, po qd co-administered with citral for 21 days starting post 8 days of citral alone treatment; assay type: organism-based; details: in vivo
# [9] = target: T1, Alpha-1A adrenergic receptor (Homo sapiens) (UniProt P35348); assay: Antagonist activity at human alpha1A adrenergic receptor expressed in Chem1 cells assessed as decrease in epinephrine-induced calcium mobilization by measuring relative fluorescence unit at 10 uM by fluoforte dye based fluorescence assay relative to epinephrine; assay type: functional, cell-based
# T1 sequence (whole entry): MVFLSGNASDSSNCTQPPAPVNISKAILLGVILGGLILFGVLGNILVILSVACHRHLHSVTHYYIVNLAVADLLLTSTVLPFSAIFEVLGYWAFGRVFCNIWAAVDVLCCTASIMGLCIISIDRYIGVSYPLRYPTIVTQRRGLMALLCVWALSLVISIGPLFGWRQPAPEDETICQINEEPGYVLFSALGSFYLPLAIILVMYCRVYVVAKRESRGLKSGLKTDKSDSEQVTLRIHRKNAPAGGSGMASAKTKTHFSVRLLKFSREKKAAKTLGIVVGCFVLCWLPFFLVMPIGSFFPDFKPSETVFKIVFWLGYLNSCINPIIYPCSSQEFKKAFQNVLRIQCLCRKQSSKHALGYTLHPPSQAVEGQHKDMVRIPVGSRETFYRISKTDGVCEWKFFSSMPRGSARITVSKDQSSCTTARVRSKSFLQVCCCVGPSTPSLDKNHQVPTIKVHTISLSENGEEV
# LNCaP [10] = assay: Antiproliferative activity against human LNCAP cells assessed as decrease in cell viability after 24 hrs by MTT assay; assay type: functional, cell-based
# DU-145 = assay: Antiproliferative activity against human DU145 cells assessed as decrease in cell viability after 24 hrs by MTT assay; assay type: functional, cell-based; details: DU-145, 24 h
# [11] = target: T2, Androgen receptor (Homo sapiens) (UniProt P10275); assay: Antagonist activity at human androgen receptor expressed in African green monkey COS7 cells at 7.5 uM after 24 hrs by ARE-dual luciferase reporter gene assay; assay type: cell-based
# T2 sequence (whole entry): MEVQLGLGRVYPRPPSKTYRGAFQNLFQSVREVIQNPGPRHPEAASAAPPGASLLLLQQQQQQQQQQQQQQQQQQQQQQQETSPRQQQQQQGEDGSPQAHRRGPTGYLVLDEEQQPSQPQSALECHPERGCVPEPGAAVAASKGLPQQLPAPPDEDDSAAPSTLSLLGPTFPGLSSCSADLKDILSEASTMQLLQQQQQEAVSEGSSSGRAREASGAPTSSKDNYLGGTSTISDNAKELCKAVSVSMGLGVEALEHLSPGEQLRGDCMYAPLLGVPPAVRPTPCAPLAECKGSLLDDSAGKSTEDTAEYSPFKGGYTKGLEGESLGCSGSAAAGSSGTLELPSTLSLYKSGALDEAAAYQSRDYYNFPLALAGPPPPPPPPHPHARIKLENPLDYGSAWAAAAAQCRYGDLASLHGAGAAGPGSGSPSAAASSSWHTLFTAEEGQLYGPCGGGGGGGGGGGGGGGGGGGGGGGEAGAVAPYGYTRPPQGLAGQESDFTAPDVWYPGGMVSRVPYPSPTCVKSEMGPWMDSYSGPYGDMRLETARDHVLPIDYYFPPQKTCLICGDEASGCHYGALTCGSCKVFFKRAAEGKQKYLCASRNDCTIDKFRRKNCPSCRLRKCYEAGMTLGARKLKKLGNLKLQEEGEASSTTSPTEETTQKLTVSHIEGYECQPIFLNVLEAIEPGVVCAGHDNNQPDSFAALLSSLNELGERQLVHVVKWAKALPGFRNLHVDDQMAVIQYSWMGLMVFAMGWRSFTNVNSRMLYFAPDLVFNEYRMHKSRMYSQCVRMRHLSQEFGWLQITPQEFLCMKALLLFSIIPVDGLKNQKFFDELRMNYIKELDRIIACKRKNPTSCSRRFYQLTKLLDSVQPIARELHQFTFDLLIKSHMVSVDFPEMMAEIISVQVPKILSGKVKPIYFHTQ
# PC-3 = assay: Antiproliferative activity against human PC3 cells assessed as decrease in cell viability after 24 hrs by MTT assay; assay type: functional, cell-based; details: PC-3, 24 h
# [12] = target: T2, Androgen receptor (Homo sapiens); assay: Antagonist activity at androgen receptor in human LNCAP cells assessed as decrease in testosterone-induced PSA expression levels at 10 uM after 24 hrs by Western blot analysis; assay type: cell-based
structure (smiles),measurement,setting,value
CC(C)C(=O)Nc1ccc([N+](=O)[O-])c(C(F)(F)F)c1 [FLUTAMIDE],Activity,Rattus norvegicus [1],Non-Toxic
same,Activity,Rattus norvegicus [2],Active
same,EC50,LNCaP [3],7 µM
same,Activity,Rattus norvegicus [4],Active
same,Activity,Rattus norvegicus [5],51.8%
same,Activity,Rattus norvegicus [6],Non-Toxic
same,Activity,Rattus norvegicus [7],Active
same,Activity,Rattus norvegicus [8],Non-Toxic
O=C(CN1CCN(c2ccc([N+](=O)[O-])cc2C(F)(F)F)CC1)N1CCN(c2ccc([N+](=O)[O-])cc2C(F)(F)F)CC1,EC50,LNCaP [3],46.6 µM
O=C(CN1CCN(c2ccccn2)CC1)N1CCN(c2ccc([N+](=O)[O-])cc2)CC1,EC50,LNCaP [3],55.2 µM
O=C(CCl)N1CCN(c2ccc([N+](=O)[O-])cc2C(F)(F)F)CC1,EC50,LNCaP [3],53.3 µM
COc1ccccc1N1CCN(CC(=O)N2CCN(c3ccccc3OC)CC2)CC1,EC50,LNCaP [3],52.2 µM
O=C(N1CCN(c2ccccn2)CC1)N1CCN(c2ccccn2)CC1,EC50,LNCaP [3],> 80 µM
O=C(N1CCN(c2ccc([N+](=O)[O-])cc2)CC1)N1CCN(c2ccc([N+](=O)[O-])cc2)CC1,EC50,LNCaP [3],72.3 µM
O=C(CCl)N1CCN(c2ccc(C(F)(F)F)cc2[N+](=O)[O-])CC1,EC50,LNCaP [3],41.1 µM
O=C(CN1CCN(c2ccccn2)CC1)N1CCN(c2ncccn2)CC1,EC50,LNCaP [3],50 µM
O=C(CN1CCN(c2ccc(C(F)(F)F)cc2[N+](=O)[O-])CC1)N1CCN(c2ccc(C(F)(F)F)cc2[N+](=O)[O-])CC1,EC50,LNCaP [3],48.2 µM
O=C(CN1CCN(c2ncccn2)CC1)N1CCN(c2ccc([N+](=O)[O-])cc2)CC1,EC50,LNCaP [3],51.7 µM
O=C(CCl)N1CCN(c2ccc([N+](=O)[O-])cc2)CC1,Activity,Rattus norvegicus [1],Non-Toxic
same,Activity,Rattus norvegicus [2],Active
same,fold change (FC),[9],1.6
same,EC50,LNCaP [3],9.8 µM
same,EC50,LNCaP [10],9.8 µM
same,Activity,Rattus norvegicus [4],Active
same,EC50,DU-145,> 70.6 µM
same,Activity,Rattus norvegicus [5],31.6 - 32%
same,Activity,[11],Active
same,Activity,Rattus norvegicus [6],Non-Toxic
same,EC50,PC-3,65 µM
same,Activity,[12],Active
same,Activity,Rattus norvegicus [7],Active
same,Activity,Rattus norvegicus [8],Non-Toxic
O=C(N1CCN(c2ccc([N+](=O)[O-])c(C(F)(F)F)c2)CC1)N1CCN(c2ccccn2)CC1,EC50,LNCaP [3],79.8 µM
O=C(N1CCN(c2ccccn2)CC1)N1CCN(c2ccc([N+](=O)[O-])cc2C(F)(F)F)CC1,EC50,LNCaP [3],> 80 µM

# From ChEMBL document CHEMBL4190178 (Medchemcomm, 2016)
